Assay results reported in patent US10487092B2, “Pyrazolopyridinamines as MKNK1 and MKNK2 inhibitors” (BAYER PHARMA AKTIENGESELLSCHAFT, priority 2014, dated 2019).
“Also recorded” adds a separate entry of the source.

Experiments:
[1] = tested on: secretion of TNF-α in human PBMCs; assay: In vitro IL-1β-induced cytokine (TNF-α) secretion of human PBMCs; assay type: cell-based; details: for IC50: PBMC, human PBMCs stimulated with 20 ng/ml IL-1β for 24 hours
Text: In Vitro IL-1β (Interleukin-1 beta, IL-1b)-Induced Cytokine Secretion of Human PBMCs (Peripheral Blood Mononuclear Cells)
The effect of the chemical compounds on the induced cytokine secretion of human PBMCs has been investigated. Here, the cytokine secretion has been induced by IL-1β which binding to its receptors leads to the activation of the MKNK signaling pathway.
(§1) Human PBMCs have been isolated from anti-coagulated human whole blood donated from healthy volunteers by pre-filling Leucosep tubes with ficoll-paque (15 ml, Biochrom, order ID: L6115) and adding 20 ml whole blood. After centrifugation of the blood at 800 g for 15 min at room temperature (RT) plasma including thrombocytes has been discarded. PBMCs were transferred to a new falcon tube, washed with PBS (phosphate-buffered saline) at 250 g for 10 min at RT and resuspended in complete medium [RPMI 1640, without L-glutamine (PAA, order ID: E15-039), 10% FCS; 50 U/ml Penicillin, 50 μg/ml Streptomycin (PAA, order ID: P11-010) and 1% L-glutamine (Sigma, order ID. G7513)]. The assay was performed in a 96-well plate at a cell density of 2.5×10^5 cells/well as triplicates. The compounds were serially diluted in DMSO and added to the PBMCs at a range of 3×10^−9 M to 1×10^−5M with a final concentration of 0.4% DMSO, respectively. Treatment of PBMCs with 0.4% DMSO was used as control. After 30 min of incubation, PBMCs were stimulated with 20 ng/ml IL-1β (R&D, order ID: 201-LB CF) for 24 hours. Cell viability was measured using the CellTiter-Glo Luminescent Assay (Promega, order ID: G7571) following the manufacturers protocol. The amount of secreted TNF-α (tumor necrosis factor-alpha) in the supernatant was determined using the Human Prolnflammatory 9-Plex (MSD, order ID: K15007B) according to manufacturer's instruction. The inhibitory activity was determined as the relation to the control in percent. IC50 values were calculated using the 4-parameter logistic model.

[2] = tested on: human peripheral blood mononuclear cells; assay: Cell viability of human PBMCs (CellTiter-Glo Luminescent Assay); assay type: cell-based; details: IL-1β stimulated, 24 hours
Method: as §1, with “The compounds were serially diluted in DMSO and added to the PBMCs at a range of 3×10^−9 M to 1×10^−5M with a final concentration of 0.4% DMSO, respectively. Treatment of PBMCs with 0.4% DMSO was used as control. After 30 min of incubation, PBMCs were stimulated with 20 ng/ml IL-1β (R&D, order ID: 201-LB CF) for 24 hours.” left out

human full-length MKNK1 = human full-length MKNK1 (Homo sapiens (Human), UniProt Q9BUB5, T344D); assay: MKNK1 kinase high ATP assay (TR-FRET); assay type: biochemical; details: high ATP (2 mM), 15 min preincubation with enzyme; read-out: MKNK1 IC50
Chain of human full-length MKNK1 (Q9BUB5 other isoform, or with tags, fused parts or gaps T344D): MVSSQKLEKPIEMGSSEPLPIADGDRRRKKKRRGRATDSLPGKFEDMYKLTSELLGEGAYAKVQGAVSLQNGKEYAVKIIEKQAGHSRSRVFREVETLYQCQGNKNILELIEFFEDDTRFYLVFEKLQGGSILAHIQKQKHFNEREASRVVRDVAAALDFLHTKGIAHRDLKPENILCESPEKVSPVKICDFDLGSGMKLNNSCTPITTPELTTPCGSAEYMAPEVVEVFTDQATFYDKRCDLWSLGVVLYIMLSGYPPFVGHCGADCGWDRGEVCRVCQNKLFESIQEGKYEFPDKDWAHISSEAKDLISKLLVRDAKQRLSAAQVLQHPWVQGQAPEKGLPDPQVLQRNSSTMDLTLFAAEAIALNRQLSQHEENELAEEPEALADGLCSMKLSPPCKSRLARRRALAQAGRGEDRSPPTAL
Method in brief: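 GST-tagged full-length MKNK1 (aa 1–424, T344D; insect-cell expressed) preincubated 15 min with compound, then reacted 30 min at 22 °C with 2 mM ATP and 0.06 μM biotinylated peptide (final) in HEPES pH 7.5 buffer. Phosphopeptide detected by TR-FRET 665/620 ratio, normalized to no-inhibitor and no-enzyme controls.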

SMILES: CN(C)[C@H]1CCN(C(=O)[C@H]2CCc3c(sc4ncnc(Nc5ccn6nccc6c5)c34)C2)C1 [Example 41, [(3S)-3-(Dimethylamino)pyrrolidin-1-yl][(7S)-4-(pyrazolo[1,5-a]pyridin-5-ylamino)-5,6,7,8-tetrahydro[1]benzothieno[2,3-d]pyrimidin-7-yl]methanone]
- IC50 [1]: 10 to 100 nM
- inhibition of the secretion of TNF-α ([1]; human PBMCs stimulated with IL-1β): inhibition of the secretion of TNF-α; also recorded: inhibits the secretion of TNF-α in a dose dependent manner
- effect on cell viability [2]: no effect
- IC50 (human full-length MKNK1): 11 nM

SMILES: COc1cn2nccc2cc1Nc1ncnc2sc3c(c12)CC[C@H](C(=O)N(C)CCO)C3 [Example 103, (7S)—N-(2-Hydroxyethyl)-4-[(6-methoxypyrazolo [1,5-a]pyridin-5-yl)amino]-N-methyl-5,6,7,8-tetrahydro[1]benzothieno[2,3-d]pyrimidine-7-carboxamide]
- IC50 [1]: 1 to 10 nM
- IC50 (human full-length MKNK1): 3 nM

SMILES: COCCN(C)C(=O)[C@H]1CCc2c(sc3ncnc(Nc4cc5ccnn5cc4OC)c23)C1 [Example 104, (7S)—N-(2-Methoxyethyl)-4-[(6-methoxypyrazolo[1,5-a]pyridin-5-yl)amino]-N-methyl-5,6,7,8-tetrahydro[1]benzothieno[2,3-d]pyrimidine-7-carboxamide]
- IC50 [1]: 1 to 10 nM
- IC50 (human full-length MKNK1): 1 nM

SMILES: COc1cn2nccc2cc1Nc1ncnc2sc3c(c12)CC[C@H](C(=O)N1CC[C@@H](N(C)C)C1)C3 [Example 106, [(3R)-3-(Dimethylamino)pyrrolidin-1-yl](7S)-4-[(6-methoxypyrazolo[1,5-a]pyridin-5-yl)amino]-5,6,7,8-tetrahydro[1]benzothieno[2,3-d]pyrimidin-7-ylmethanone]
- IC50 [1]: 1 to 10 nM
- IC50 (human full-length MKNK1): < 1 nM

SMILES: COc1cn2nccc2cc1Nc1ncnc2sc3c(c12)CC[C@H](C(=O)N1CCN(C)CC1)C3 [Example 113, (7S)-4-[(6-Methoxypyrazolo[1,5-a]pyridin-5-yl)amino]-5,6,7,8-tetrahydro[1]benzothieno[2,3-d]pyrimidin-7-yl(4-methylpiperazin-1-yl)methanone]
- IC50 [1]: 10 to 100 nM
- IC50 (human full-length MKNK1): 1 nM

SMILES: COc1cn2nccc2cc1Nc1ncnc2sc3c(c12)CC[C@H](C(=O)N1CCOCC1)C3 [Example 116, (7S)-4-[(6-Methoxypyrazolo[1,5-a]pyridin-5-yl)amino]-5,6,7,8-tetrahydro[1]benzothieno[2,3-d]pyrimidin-7-yl(morpholin-4-yl)methanone]
- IC50 [1]: 10 to 100 nM
- IC50 (human full-length MKNK1): 1 nM

SMILES: COc1cn2nccc2cc1Nc1ncnc2sc3c(c12)CC[C@H](C(=O)N1CCOC[C@@H]1C)C3 [Example 125, (7S)-4-[(6-Methoxypyrazolo[1,5-a]pyridin-5-yl)amino]-5,6,7,8-tetrahydro[1]benzothieno[2,3-d]pyrimidin-7-yl[(3S)-3-methylmorpholin-4-yl]methanone]
- IC50 [1]: ≥ 100 nM
- IC50 (human full-length MKNK1): 1 nM
